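Growth conditions: 96-well plates. Treatment: test compound, 48 hours, 5 concentrations. Analysis: linear interpolation between bracketing concentrations; unreached endpoints set to highest concentration. Abbreviation: GI50, concentration required for 50% inhibition of growth. The concentration for full growth arrest is given as TGI.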
Key:
Test in all cases: NCI tumour cell line growth inhibition, 48 h
[1] = system: EKVX NSCLC
[2] = system: SR leukemia
[3] = system: OVCAR-3 ovarian
[4] = system: SF-539 CNS
[5] = system: HOP-62 NSCLC
[6] = system: KM12 colon
[7] = system: NCI-H522 lung
[8] = system: COLO 205 colon
[9] = system: HL-60(TB) leukemia
[10] = system: U251 CNS
[11] = system: NCI-H460 lung
[12] = system: SK-MEL-5 melanoma
[13] = system: SK-MEL-2 melanoma
[14] = system: NCI-H226 lung
[15] = system: PC-3 prostate
[16] = system: NCI/ADR-RES ovarian
[17] = system: SNB-19 CNS
[18] = system: UACC-62 melanoma
[19] = system: UACC-257 melanoma
[20] = system: HCT-15 colon
[21] = system: NCI-H23 lung
[22] = system: A498 renal
[23] = system: HOP-92 NSCLC
[24] = system: IGROV1 ovarian
[25] = system: TK-10 renal
[26] = system: RXF 393 renal
[27] = system: CAKI-1 renal
[28] = system: ACHN renal
[29] = system: RPMI-8226 leukemia
[30] = system: SK-MEL-28 melanoma
[31] = system: MOLT-4 leukemia
[32] = system: HT29 colon
[33] = system: SF-295 CNS
[34] = system: MDA-MB-435
[35] = system: OVCAR-8 ovarian
[36] = system: CCRF-CEM leukemia
[37] = system: SNB-75 CNS
[38] = system: LOX IMVI melanoma
[39] = system: OVCAR-5 ovarian
[40] = system: SN12C renal
[41] = system: HCT-116 colon
[42] = system: SF-268 CNS
[43] = system: DU-145 prostate
[44] = system: K-562 leukemia
[45] = system: A549 NSCLC
[46] = system: HS 578T breast
[47] = system: MDA-MB-231 breast
[48] = system: UO-31 renal
[49] = system: M14 melanoma
[50] = system: SW-620 colon
[51] = system: MALME-3M melanoma
[52] = system: HCC-2998 colon
[53] = system: MCF7 breast
[54] = system: T-47D breast
[55] = system: BT-549 breast
[56] = system: 786-0 renal
[57] = system: SK-OV-3 ovarian
[58] = system: OVCAR-4 ovarian

SMILES: COc1cc(N(CCCl)CCCl)ccc1/C=N\NC(=O)c1cccnc1
- GI50 [1]: 31.2 µM
- TGI [1]: 87.5 µM
- GI50 [2]: 13.7 µM
- TGI [2]: > 100 µM
- GI50 [3]: 21 µM
- TGI [3]: 50.4 µM
- GI50 [4]: 27.3 µM
- TGI [4]: > 100 µM
- GI50 [5]: 34.9 µM
- TGI [5]: > 100 µM
- GI50 [6]: 33.6 µM
- TGI [6]: > 100 µM
- GI50 [7]: 21.8 µM
- TGI [7]: 65.8 µM
- GI50 [8]: 13.5 µM
- TGI [8]: > 100 µM
- GI50 [9]: 11.4 µM
- TGI [9]: 40.4 µM
- GI50 [10]: 23.8 µM
- TGI [10]: > 100 µM
- GI50 [11]: 403 nM
- TGI [11]: 25.4 µM
- GI50 [12]: 16.4 µM
- TGI [12]: 36 µM
- GI50 [13]: 28 µM
- TGI [13]: 62 µM
- GI50 [14]: 1720 nM
- TGI [14]: 9.47 µM
- GI50 [15]: 21.4 µM
- TGI [15]: > 100 µM
- GI50 [16]: 24.9 µM
- TGI [16]: > 100 µM
- GI50 [17]: 52.8 µM
- TGI [17]: > 100 µM
- GI50 [18]: 10.5 µM
- TGI [18]: 29.5 µM
- GI50 [19]: 15.3 µM
- TGI [19]: 63.3 µM
- GI50 [20]: 27.2 µM
- TGI [20]: > 100 µM
- GI50 [21]: 26.7 µM
- TGI [21]: > 100 µM
- GI50 [22]: 523 nM
- TGI [22]: 1980 nM
- GI50 [23]: 14.1 µM
- TGI [23]: 45.4 µM
- GI50 [24]: 36 µM
- TGI [24]: > 100 µM
- GI50 [25]: 16.9 µM
- TGI [25]: 53.5 µM
- GI50 [26]: 24.1 µM
- TGI [26]: 78.5 µM
- GI50 [27]: 9.25 µM
- TGI [27]: 59.2 µM
- GI50 [28]: 17 µM
- TGI [28]: > 100 µM
- GI50 [29]: 30.9 µM
- TGI [29]: > 100 µM
- GI50 [30]: 48.4 µM
- TGI [30]: > 100 µM
- GI50 [31]: 22.3 µM
- TGI [31]: 67.4 µM
- GI50 [32]: 34.8 µM
- TGI [32]: > 100 µM
- GI50 [33]: 4.31 µM
- TGI [33]: 35.7 µM
- GI50 [34]: 30.3 µM
- TGI [34]: > 100 µM
- GI50 [35]: 26.5 µM
- TGI [35]: > 100 µM
- GI50 [36]: 23 µM
- TGI [36]: > 100 µM
- GI50 [37]: 37.1 µM
- TGI [37]: > 100 µM
- GI50 [38]: 32.2 µM
- TGI [38]: > 100 µM
- GI50 [39]: 8.34 µM
- TGI [39]: 60.1 µM
- GI50 [40]: 30 µM
- TGI [40]: > 100 µM
- GI50 [41]: 26 µM
- TGI [41]: > 100 µM
- GI50 [42]: 36.6 µM
- TGI [42]: > 100 µM
- GI50 [43]: 24.6 µM
- TGI [43]: > 100 µM
- GI50 [44]: 36.6 µM
- TGI [44]: > 100 µM
- GI50 [45]: 12.1 µM
- TGI [45]: > 100 µM
- GI50 [46]: 32.6 µM
- TGI [46]: > 100 µM
- GI50 [47]: 33.8 µM
- TGI [47]: > 100 µM
- GI50 [48]: 23.8 µM
- TGI [48]: 79.1 µM
- GI50 [49]: 37.5 µM
- TGI [49]: > 100 µM
- GI50 [50]: 30.4 µM
- TGI [50]: > 100 µM
- GI50 [51]: 38.3 µM
- TGI [51]: > 100 µM
- GI50 [52]: 41.2 µM
- TGI [52]: > 100 µM
- GI50 [53]: 23.8 µM
- TGI [53]: > 100 µM
- GI50 [54]: 11.4 µM
- TGI [54]: > 100 µM
- GI50 [55]: 20.9 µM
- TGI [55]: 89.5 µM

SMILES: O=C(CC(=O)N1N=C(N(c2ccccc2)c2ccccc2)CC1c1ccccc1)Nc1cccc(Cl)c1 (stereo not given)
- TGI [1]: > 100 µM
- TGI [2]: > 100 µM
- TGI [3]: > 100 µM
- TGI [4]: > 100 µM
- TGI [5]: > 100 µM
- TGI [6]: > 100 µM
- TGI [7]: > 100 µM
- TGI [8]: > 100 µM
- TGI [9]: > 100 µM
- TGI [10]: > 100 µM
- TGI [11]: > 100 µM
- TGI [12]: > 100 µM
- TGI [13]: > 100 µM
- TGI [56]: > 100 µM
- TGI [14]: > 100 µM
- TGI [15]: > 100 µM
- TGI [16]: > 100 µM
- TGI [17]: > 100 µM
- TGI [18]: > 100 µM
- TGI [19]: > 100 µM
- TGI [20]: > 100 µM
- TGI [21]: > 100 µM
- TGI [57]: > 100 µM
- TGI [23]: > 100 µM
- TGI [24]: > 100 µM
- TGI [25]: > 100 µM
- TGI [26]: > 100 µM
- TGI [27]: > 100 µM
- TGI [28]: > 100 µM
- TGI [29]: > 100 µM
- TGI [30]: > 100 µM
- TGI [31]: > 100 µM
- TGI [32]: > 100 µM
- TGI [33]: > 100 µM
- TGI [34]: > 100 µM
- TGI [35]: > 100 µM
- TGI [36]: > 100 µM
- TGI [37]: > 100 µM
- TGI [39]: > 100 µM
- TGI [40]: > 100 µM
- TGI [41]: > 100 µM
- TGI [42]: > 100 µM
- TGI [43]: > 100 µM
- TGI [44]: > 100 µM
- TGI [45]: > 100 µM
- TGI [46]: > 100 µM
- TGI [47]: > 100 µM
- TGI [48]: > 100 µM
- TGI [58]: > 100 µM
- TGI [49]: > 100 µM
- TGI [50]: > 100 µM
- TGI [52]: > 100 µM
- TGI [53]: > 100 µM
- TGI [54]: > 100 µM
- TGI [55]: > 100 µM
